Key:
Assay in all cases: relative viability (nuclei count vs DMSO), 5 days (fraction); higher = more cells survive
[1] = tested on: NCI-H1666
How it was run: (§1)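 Lung cancer cell lines, seeded in 1536-well plates, were treated the following day by pin tool with a single drug or with five library-drug doses (not always all listed) in √10 steps on top of a fixed anchor-drug dose. Cells were fixed and nuclei stained in one step after 5 days, and nuclei were counted. Relative viability is the nuclei count for treated wells divided by that for vehicle wells, reported as medians of duplicate plates.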

[2] = tested on: NCI-H2087
How it was run: as §1

[3] = tested on: NCI-H23
How it was run: as §1

[4] = tested on: BEN
How it was run: as §1

[5] = tested on: NCI-H2009
How it was run: as §1

[6] = tested on: HARA
How it was run: as §1

[7] = tested on: NCI-H2023
How it was run: as §1

[8] = tested on: NCI-H441
How it was run: as §1

[9] = tested on: NCI-H3122
How it was run: as §1

[10] = tested on: NCI-H2347
How it was run: as §1

[11] = tested on: NCI-H647
How it was run: as §1

[12] = tested on: NCI-H2126
How it was run: as §1

[13] = tested on: NCI-H727
How it was run: as §1

[14] = tested on: NCI-H650
How it was run: as §1

[15] = tested on: NCI-H838
How it was run: as §1

[16] = tested on: NCI-H1993
How it was run: as §1

[17] = tested on: 201T
How it was run: as §1

[18] = tested on: NCI-H596
How it was run: as §1

[19] = tested on: EMC-BAC-2
How it was run: as §1

[20] = tested on: LOU-NH91
How it was run: as §1

[21] = tested on: NCI-H1395
How it was run: as §1

[22] = tested on: LCLC-103H
How it was run: as §1

[23] = tested on: HCC-44
How it was run: as §1

Molecule `COc1cc(N2CCC(C(N)=O)CC2)ccc1Nc1nc(N)c(Cl)c(Nc2ccccc2S(=O)(=O)C(C)C)n1` [HG-5-88-01] + Cc1nc(NC(=O)N2CCC[C@H]2C(N)=O)sc1-c1ccnc(C(C)(C)C(F)(F)F)c1 [Alpelisib] (partner 2 µM) has a relative viability ([1]; first compound 0.04 µM) of 1, a relative viability ([1]; first compound 0.1265 µM) of 1.02 and a relative viability ([1]; first compound 0.4 µM) of 0.816. It also gave a relative viability ([1]; first compound 1.265 µM) of 0.706, a relative viability ([1]; first compound 4 µM) of 0.657 and a relative viability ([2]; first compound 0.04 µM) of 0.967. It also gave a relative viability ([2]; first compound 0.1265 µM) of 1.17, a relative viability ([2]; first compound 0.4 µM) of 0.997 and a relative viability ([2]; first compound 1.265 µM) of 1.04. The relative viability ([2]; first compound 4 µM) was 0.974, the relative viability ([3]; first compound 0.04 µM) was 0.832 and the relative viability ([3]; first compound 0.1265 µM) was 0.738. For the same molecule, the relative viability ([3]; first compound 0.4 µM) was 0.67, the relative viability ([3]; first compound 1.265 µM) was 0.847 and the relative viability ([3]; first compound 4 µM) was 0.496. The relative viability ([4]; first compound 0.04 µM) was 0.948, the relative viability ([4]; first compound 0.1265 µM) was 1.03 and the relative viability ([4]; first compound 0.4 µM) was 1.04. It also gave a relative viability ([4]; first compound 1.265 µM) of 0.853, a relative viability ([4]; first compound 4 µM) of 1.15 and a relative viability ([5]; first compound 0.04 µM) of 1.13. It also gave a relative viability ([5]; first compound 0.1265 µM) of 1.05, a relative viability ([5]; first compound 0.4 µM) of 1.05 and a relative viability ([5]; first compound 1.265 µM) of 1.17. For the same molecule, the relative viability ([5]; first compound 4 µM) was 1.14, the relative viability ([6]; first compound 0.04 µM) was 0.938 and the relative viability ([6]; first compound 0.1265 µM) was 0.777. It also gave a relative viability ([6]; first compound 0.4 µM) of 0.742, a relative viability ([6]; first compound 1.265 µM) of 0.779 and a relative viability ([6]; first compound 4 µM) of 0.799. The relative viability ([7]; first compound 0.04 µM) was 0.659, the relative viability ([7]; first compound 0.1265 µM) was 0.54 and the relative viability ([7]; first compound 0.4 µM) was 0.539. It also gave a relative viability ([7]; first compound 1.265 µM) of 0.358, a relative viability ([7]; first compound 4 µM) of 0.474 and a relative viability ([8]; first compound 0.04 µM) of 0.752. For the same molecule, the relative viability ([8]; first compound 0.1265 µM) was 0.77, the relative viability ([8]; first compound 0.4 µM) was 0.845 and the relative viability ([8]; first compound 1.265 µM) was 0.84. It also gave a relative viability ([8]; first compound 4 µM) of 0.893, a relative viability ([9]; first compound 0.04 µM) of 0.624 and a relative viability ([9]; first compound 0.1265 µM) of 0.259. It also gave a relative viability ([9]; first compound 0.4 µM) of 0.245, a relative viability ([9]; first compound 1.265 µM) of 0.195 and a relative viability ([9]; first compound 4 µM) of 0.2. For the same molecule, the relative viability ([10]; first compound 0.04 µM) was 1.09, the relative viability ([10]; first compound 0.1265 µM) was 1.14 and the relative viability ([10]; first compound 0.4 µM) was 1.1. It also gave a relative viability ([10]; first compound 1.265 µM) of 0.984, a relative viability ([10]; first compound 4 µM) of 0.973 and a relative viability ([11]; first compound 0.04 µM) of 1.09. The relative viability ([11]; first compound 0.1265 µM) was 1.15, the relative viability ([11]; first compound 1.265 µM) was 1.09 and the relative viability ([11]; first compound 4 µM) was 1.4. It also gave a relative viability ([12]; first compound 0.04 µM) of 0.81, a relative viability ([12]; first compound 0.1265 µM) of 0.79 and a relative viability ([12]; first compound 0.4 µM) of 0.774. The relative viability ([12]; first compound 1.265 µM) was 0.681, the relative viability ([12]; first compound 4 µM) was 0.716 and the relative viability ([13]; first compound 0.04 µM) was 0.517. The relative viability ([13]; first compound 0.1265 µM) was 0.512, the relative viability ([13]; first compound 0.4 µM) was 0.519 and the relative viability ([13]; first compound 1.265 µM) was 0.329. The relative viability ([13]; first compound 4 µM) was 0.27, the relative viability ([14]; first compound 0.04 µM) was 0.689 and the relative viability ([14]; first compound 0.1265 µM) was 1.18. The relative viability ([14]; first compound 0.4 µM) was 1.04, the relative viability ([14]; first compound 1.265 µM) was 0.816 and the relative viability ([14]; first compound 4 µM) was 0.8. The relative viability ([15]; first compound 0.04 µM) was 1, the relative viability ([15]; first compound 0.1265 µM) was 1.1 and the relative viability ([15]; first compound 0.4 µM) was 0.917. For the same molecule, the relative viability ([15]; first compound 1.265 µM) was 0.9, the relative viability ([15]; first compound 4 µM) was 0.896 and the relative viability ([16]; first compound 0.04 µM) was 0.709. The relative viability ([16]; first compound 0.1265 µM) was 0.596, the relative viability ([16]; first compound 0.4 µM) was 0.566 and the relative viability ([16]; first compound 1.265 µM) was 0.682. For the same molecule, the relative viability ([16]; first compound 4 µM) was 0.751, the relative viability ([17]; first compound 0.04 µM) was 0.99 and the relative viability ([17]; first compound 0.1265 µM) was 1.06. The relative viability ([17]; first compound 0.4 µM) was 1.06, the relative viability ([17]; first compound 1.265 µM) was 0.974 and the relative viability ([17]; first compound 4 µM) was 1.09. For the same molecule, the relative viability ([18]; first compound 0.04 µM) was 0.529, the relative viability ([18]; first compound 0.1265 µM) was 0.477 and the relative viability ([18]; first compound 0.4 µM) was 0.587. For the same molecule, the relative viability ([18]; first compound 1.265 µM) was 0.362, the relative viability ([18]; first compound 4 µM) was 0.493 and the relative viability ([19]; first compound 0.04 µM) was 0.729. The relative viability ([19]; first compound 0.1265 µM) was 0.757, the relative viability ([19]; first compound 0.4 µM) was 0.723 and the relative viability ([19]; first compound 1.265 µM) was 0.703. The relative viability ([19]; first compound 4 µM) was 0.628, the relative viability ([20]; first compound 0.04 µM) was 0.713 and the relative viability ([20]; first compound 0.1265 µM) was 0.67. For the same molecule, the relative viability ([20]; first compound 0.4 µM) was 0.659, the relative viability ([20]; first compound 1.265 µM) was 0.545 and the relative viability ([20]; first compound 4 µM) was 0.528. For the same molecule, the relative viability ([21]; first compound 0.04 µM) was 1.09, the relative viability ([21]; first compound 0.1265 µM) was 1.06 and the relative viability ([21]; first compound 0.4 µM) was 1.1. For the same molecule, the relative viability ([21]; first compound 1.265 µM) was 0.909, the relative viability ([21]; first compound 4 µM) was 0.986 and the relative viability ([22]; first compound 0.04 µM) was 0.938. For the same molecule, the relative viability ([22]; first compound 0.1265 µM) was 0.968, the relative viability ([22]; first compound 0.4 µM) was 0.949 and the relative viability ([22]; first compound 1.265 µM) was 0.907. The relative viability ([22]; first compound 4 µM) was 1.2, the relative viability ([23]; first compound 0.04 µM) was 0.858 and the relative viability ([23]; first compound 0.1265 µM) was 0.824. The relative viability ([23]; first compound 0.4 µM) was 0.701, the relative viability ([23]; first compound 1.265 µM) was 0.68 and the relative viability ([23]; first compound 4 µM) was 0.471.

Reference: the supplement of paper PMC10307832
